From PubChem BioAssay (NCI) come the findings set out here.

Some test systems named below: SK-MEL-28 melanoma; ACHN renal; K-562 leukemia; PC-3 prostate; HS 578T breast; LOX IMVI melanoma; UO-31 renal; OVCAR-3 ovarian; U251 CNS; MDA-N; TK-10 renal; MDA-MB-231 breast; RPMI-8226 leukemia; A549 NSCLC; SW-620 colon; SK-MEL-2 melanoma; A498 renal; MOLT-4 leukemia.
Holding throughout (test): NCI-60 cell line screen, 48 h

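Results reflect a 48-hour exposure of cells in 96-well plates to compound at five concentrations. TGI marks complete inhibition of growth.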

Take `CC1(C)CCCCCCC2OC2CCCCCC(C)(C)C1=O` (stereo not drawn): the TGI with SK-MEL-28 melanoma is above 100 µM; in the assay with ACHN renal it was above 65 µM; with K-562 leukemia, above 82.6 µM; in the assay on PC-3 prostate, above 94.6 µM; in the assay on HS 578T breast, above 100 µM; in the assay with LOX IMVI melanoma it was above 100 µM. Besides, the TGI is 88.2 µM in the assay with UO-31 renal; above 100 µM in the assay on OVCAR-3 ovarian; 63.2 µM in the assay on U251 CNS; above 100 µM with MDA-N; above 100 µM in the assay on TK-10 renal; above 100 µM in the assay with MDA-MB-231 breast. The TGI in the assay with RPMI-8226 leukemia was above 95 µM; in the assay with A549 NSCLC it was above 100 µM; in the assay on SW-620 colon, above 100 µM; with SK-MEL-2 melanoma, above 65.4 µM; in the assay with A498 renal, above 100 µM; in the assay on MOLT-4 leukemia it was 61.2 µM.

As to `[O-][n+]1onc(-c2ccccc2)c1CN1CCOCC1`, the TGI in the assay on SK-MEL-28 melanoma, in the assay on ACHN renal, with K-562 leukemia, in the assay with PC-3 prostate, in the assay on HS 578T breast and in the assay on LOX IMVI melanoma was above 100 µM in each case. For the same compound, the TGI in the assay on UO-31 renal, in the assay with OVCAR-3 ovarian, with U251 CNS, in the assay on MDA-N, with TK-10 renal and with MDA-MB-231 breast was above 100 µM each time. Besides, the TGI is above 100 µM in the assay on RPMI-8226 leukemia; above 100 µM in the assay with A549 NSCLC; above 100 µM in the assay on SW-620 colon; above 100 µM in the assay on SK-MEL-2 melanoma; above 100 µM in the assay on A498 renal; 94.1 µM with MOLT-4 leukemia.

For `CN(/N=C/c1ccccn1)C1=NCCCCN1`, the TGI in the assay with SK-MEL-28 melanoma, in the assay with ACHN renal, with K-562 leukemia, in the assay on PC-3 prostate, with HS 578T breast and in the assay on LOX IMVI melanoma was above 100 µM throughout. Moreover, the TGI with UO-31 renal, in the assay with OVCAR-3 ovarian, in the assay on U251 CNS, in the assay with MDA-N, in the assay with TK-10 renal and in the assay with MDA-MB-231 breast was above 100 µM each time. The TGI in the assay with RPMI-8226 leukemia, with A549 NSCLC, in the assay with SW-620 colon, with SK-MEL-2 melanoma, in the assay on A498 renal and in the assay on MOLT-4 leukemia was above 100 µM each time.

Turning to `C=C(Br)CN(C(C)=O)C1CCCCC1`, the TGI with SK-MEL-28 melanoma, with ACHN renal, in the assay on K-562 leukemia, in the assay on PC-3 prostate, in the assay on HS 578T breast and in the assay on LOX IMVI melanoma was above 100 µM each time. Also, the TGI in the assay on UO-31 renal, with OVCAR-3 ovarian, with U251 CNS, in the assay on MDA-N, in the assay with TK-10 renal and in the assay on MDA-MB-231 breast was above 100 µM each time. Besides, the TGI in the assay on RPMI-8226 leukemia, with A549 NSCLC, in the assay with SW-620 colon, in the assay with SK-MEL-2 melanoma, in the assay on A498 renal and in the assay with MOLT-4 leukemia was above 100 µM throughout.

As to `Cc1ccc(SCC(CF)OCn2cc(F)c(=O)[nH]c2=O)cc1` (stereo not drawn), the TGI in the assay on SK-MEL-28 melanoma, with ACHN renal, in the assay on K-562 leukemia, in the assay on PC-3 prostate, in the assay on HS 578T breast and in the assay on LOX IMVI melanoma was above 100 µM each time. In addition, the TGI in the assay with UO-31 renal, in the assay on OVCAR-3 ovarian, in the assay on U251 CNS, in the assay on MDA-N, in the assay on TK-10 renal and in the assay on MDA-MB-231 breast was above 100 µM throughout. Moreover, the TGI in the assay with RPMI-8226 leukemia, in the assay with A549 NSCLC, in the assay with SW-620 colon, in the assay on SK-MEL-2 melanoma, with A498 renal and in the assay with MOLT-4 leukemia was above 100 µM in each case.

Consider `CC(=O)NC1C(O)C(O)C(CO)OC1n1ncc(=O)[nH]c1=O` (stereo not drawn), for which the TGI in the assay on SK-MEL-28 melanoma, in the assay with ACHN renal, with K-562 leukemia, in the assay on PC-3 prostate, in the assay with HS 578T breast and in the assay on LOX IMVI melanoma was above 100 µM throughout. The TGI in the assay on UO-31 renal, in the assay with OVCAR-3 ovarian, in the assay with U251 CNS, with MDA-N, in the assay on TK-10 renal and in the assay on MDA-MB-231 breast was above 100 µM each time. Further, the TGI in the assay with RPMI-8226 leukemia, with A549 NSCLC, in the assay on SW-620 colon, in the assay on SK-MEL-2 melanoma, with A498 renal and in the assay with MOLT-4 leukemia was above 100 µM each time.

On to `CN(C)C(=O)Nc1cc2c3c(c1)CCCN3CCC2`, for which the TGI in the assay with SK-MEL-28 melanoma, in the assay with ACHN renal, with K-562 leukemia, in the assay on PC-3 prostate, with HS 578T breast and in the assay on LOX IMVI melanoma was above 10 µM in each case. Moreover, the TGI with UO-31 renal, with OVCAR-3 ovarian, with U251 CNS, with MDA-N, in the assay with TK-10 renal and in the assay with MDA-MB-231 breast was above 10 µM throughout. Further, the TGI with RPMI-8226 leukemia, in the assay on A549 NSCLC, in the assay on SW-620 colon, with SK-MEL-2 melanoma, with A498 renal and in the assay on MOLT-4 leukemia was above 10 µM each time.

Turning to `O=c1[nH]c(=S)[nH]n1C(=S)n1[nH]c(=S)[nH]c1=O`, the TGI in the assay on SK-MEL-28 melanoma, in the assay on ACHN renal, with K-562 leukemia, in the assay on PC-3 prostate, in the assay on HS 578T breast and in the assay on LOX IMVI melanoma was above 100 µM each time. For the same compound, the TGI in the assay on UO-31 renal, in the assay with OVCAR-3 ovarian, in the assay with U251 CNS, in the assay with MDA-N, in the assay on TK-10 renal and with MDA-MB-231 breast was above 100 µM each time. The TGI in the assay on RPMI-8226 leukemia, with A549 NSCLC, with SW-620 colon, in the assay with SK-MEL-2 melanoma, in the assay on A498 renal and in the assay on MOLT-4 leukemia was above 100 µM each time.

`CCC1=CC2Cc3nc4cc(Cl)ccc4c(N)c3C(C1)C2` (stereo not drawn): the TGI was determined as 7.5 µM in the assay on SK-MEL-28 melanoma; 26.7 µM with ACHN renal; 7.57 µM in the assay with K-562 leukemia; 18.4 µM in the assay with PC-3 prostate; 13.1 µM in the assay with HS 578T breast; 19.2 µM in the assay on LOX IMVI melanoma. Also, the TGI with UO-31 renal was 20.6 µM; in the assay with OVCAR-3 ovarian, 21.9 µM; in the assay on U251 CNS it was 25.3 µM; in the assay with MDA-N, 18 µM; with TK-10 renal, 13.6 µM; with MDA-MB-231 breast, 18.9 µM. In addition, the TGI is 5.79 µM in the assay with RPMI-8226 leukemia; 30.8 µM with A549 NSCLC; 36 µM in the assay on SW-620 colon; 21.2 µM in the assay on SK-MEL-2 melanoma; 17.3 µM with A498 renal; 3.28 µM with MOLT-4 leukemia.

In the case of `COc1ccc(-c2c(CN3CCOCC3)sc3nc4ccccc4n23)cc1`, the TGI in the assay on SK-MEL-28 melanoma was 98.6 µM; in the assay with ACHN renal it was above 100 µM; in the assay on K-562 leukemia it was above 28.7 µM; in the assay with PC-3 prostate, above 67.4 µM; in the assay on HS 578T breast, above 69.7 µM; with LOX IMVI melanoma it was above 100 µM. Besides, the TGI was above 100 µM in the assay with UO-31 renal; above 80.9 µM with OVCAR-3 ovarian; 41.5 µM with U251 CNS; 5.38 µM with MDA-N; above 100 µM in the assay with TK-10 renal; above 68.9 µM in the assay on MDA-MB-231 breast. In addition, the TGI with RPMI-8226 leukemia is 23.4 µM; in the assay with A549 NSCLC it was above 86.1 µM; in the assay on SW-620 colon, above 100 µM; in the assay on SK-MEL-2 melanoma, above 100 µM; with A498 renal it was 72.4 µM; in the assay with MOLT-4 leukemia, above 100 µM.

For `OC(C/C(=N\N1CCCCC1)c1cccs1)(C(F)(F)F)C(F)(F)F`, the TGI in the assay on SK-MEL-28 melanoma, in the assay with ACHN renal, in the assay on K-562 leukemia, with PC-3 prostate, in the assay with HS 578T breast and in the assay with LOX IMVI melanoma was above 10 µM each time. For the same compound, the TGI in the assay with UO-31 renal, with OVCAR-3 ovarian, in the assay on U251 CNS, in the assay on MDA-N, in the assay on TK-10 renal and in the assay on MDA-MB-231 breast was above 10 µM throughout. The TGI with RPMI-8226 leukemia, with A549 NSCLC, with SW-620 colon, in the assay on SK-MEL-2 melanoma, in the assay on A498 renal and in the assay with MOLT-4 leukemia was above 10 µM throughout.
